Test results taken from US20150284344A1, “Substituted [1,2,4]triazole Compounds” (BASF SE, priority 2012, published 2015).

Assays:
Format in all cases: cell-based
Septoria tritici = assay: Microtiterplate test against leaf blotch on wheat caused by Septoria tritici (Septtr), M3 / C4; details: comparison test C4, control = 100%
Leptosphaeria nodorum = assay: Microtiterplate test against wheat leaf spots caused by Leptosphaeria nodorum (Leptno), C3; details: comparison test C3, control = 100%
Pyricularia oryzae = details: comparison test C2, control = 100%
Botrytis cinerea = assay: Microtiterplate test against grey mold Botrytis cinerea (Botrci), M1 / C1; details: comparison test C1, control = 100%

In the case of `Cc1cc(Oc2ccc(Cl)cc2)ccc1C(O)(CF)Cn1cncn1` (stereo not drawn) [EP 113 640 A2, compound 53, Table I, reference compound], the “Growth (%) at 2 ppm Septtr” value (Septoria tritici) was 40%, the “Growth (%) at 2 ppm Leptno” value (Leptosphaeria nodorum) was 65% and the “Growth (%) at 31 ppm Pyrior” value (Pyricularia oryzae) was 47%. The “Growth (%) at 31 ppm Botrci” value (Botrytis cinerea) was 63%.
For `Cc1cc(Oc2ccc(Cl)cc2)ccc1C(C)(O)Cn1cncn1` (stereo not drawn) [Compound I-4, 2-[4-(4-chlorophenoxy)-2-methyl-phenyl]-1-(1,2,4-triazol-1-yl)propan-2-ol], the “Growth (%) at 2 ppm Septtr” value (Septoria tritici) was 0%, the “Growth (%) at 2 ppm Leptno” value (Leptosphaeria nodorum) was 0% and the “Growth (%) at 31 ppm Pyrior” value (Pyricularia oryzae) was 0%. For the same compound, the “Growth (%) at 31 ppm Botrci” value (Botrytis cinerea) was 0%.
In the case of `Cc1cc(Oc2ccc(Cl)cc2)ccc1C(O)(Cn1cncn1)C(F)(F)F` (stereo not drawn) [Compound I-5, 2-[4-(4-chlorophenoxy)-2-methyl-phenyl]-1,1,1-trifluoro-3-(1,2,4-triazol-1-yl)propan-2-ol], the “Growth (%) at 2 ppm Septtr” value (Septoria tritici) was 2%, the “Growth (%) at 2 ppm Leptno” value (Leptosphaeria nodorum) was 1% and the “Growth (%) at 31 ppm Pyrior” value (Pyricularia oryzae) was 0%. For the same compound, the “Growth (%) at 31 ppm Botrci” value (Botrytis cinerea) was 0%.
